Tests used:
in vivo = settings: male, SD, rat
Description: Intragastric administration (ig): 16 healthy SD rats (Shanghai Super-B&K Laboratory Animal Corp. Ltd., grade SPF), male, weighted 200-250 g, randomly divided into four groups, were each administered intragastrically with a drug: the compound prepared according to Example 1 (21.68 mg/kg), crystalline form A, crystalline form B, or crystalline form C (30 mg/kg) of p-toluenesulfonate of said compound. The blood samples were collected at 0.5 h, 1.0 h, 1.5 h, 2.0 h, 3.0 h, 5.0 h, 7.0 h, 9.0 h, 12 h, and 24 h after administration, which were then isolated to prepare the plasma. The concentrations of the drugs in the plasma were determined by means of liquid phase chromatography/tandem mass spectrometer (Agilent 1200LC/6410B), and the concentration-time curve was obtained.

[1] = Study of stability at high temperature (60° C.); format: physicochemical; settings: p-toluenesulfonate; for Purity (%): 60° C.; for thermal stability (in words): stored at 60° C. for 1 month
Study of light stability = format: physicochemical; settings: p-toluenesulfonate; for light stability (in words): illumination 45001×±5001× for 1 month; for Purity (%): illumination 45001×±5001×
Description: The purity of the crystalline form A was detected at day 0, day 10 and day 30, thereby deducing light stability of crystalline form A. The light stability of each of crystalline forms B and C is obtained by the same approach.

[2] = Study of hygroscopicity (92.5% humidity); format: physicochemical; settings: p-toluenesulfonate; for stability in highly humid surroundings (in words): 92.5% humidity for 1 month; for Purity (%): 92.5% humidity
[3] = test system: human ovarian cancer SKOV-3; test: Tumor-inhibitory effect on human ovarian cancer SKOV-3 grafted to a BALB/cA nude mouse; format: in vivo; settings: 5 mg/kg iv once on the first day
Description: A SKOV-3 tumor tissue in vigorous growth period was selected and incised into uniform pieces with the size of about 1.5 mm^3, which was grafted subcutaneously to the right armpit of a BALB/cA nude mouse (Shanghai Institute of Materia Medica, Chinese Academy of Sciences, grade SPF) with a trocar under sterile conditions. The diameters of the grafted tumors on the nude mouse were measured with a vernier caliper. The animals were grouped randomly when the tumors grew to a size of 80 to 100 mm^3. The tested animal groups were intragastrically administered through mouth as mentioned above once a day for 3 consecutive weeks. The positive control drug MMC (Mitomycin) was intravenously administered once on the first day with a dose of 5 mg/kg (0.9% sterile sodium chloride solution). The negative control group was administered with 0.5% CMC-Na (Carboxymethyl Cellulose-Sodium) with a dose of 0.2 mL/per mouse. The long axis (a) and the short axis (b) of the tumors were measured twice every week and the nude mice were weighed at the same time. According to the formula V=ab^2/2, the volume (mm^3) of the tumor could be calculated. Relative tumor volume (RTV) was calculated from the measurement result (according to the formula: RTV=Vt/V0, wherein V0 is the tumor volume measured upon the grouping time of administration, and Vt is the tumor volume measured each time). The relative tumor proliferation rate T/C(%) was chosen as the index of evaluation of anti-tumor activity, by the formula: T/C(%)=(TRTV/CRTV)×100 TRTV: RTV of the treated group; CRTV: RTV of the negative control group
Human epidermoid squamous carcinoma A431 grafted to BALB/cA nude mouse is an animal model having high expression of EGFR (erbB-1), and human ovarian cancer SKOV-3 grafted to BALB/cA nude mouse is an animal model having high expression of erbB-2.

Row | absolute bioavailability (in vivo) | Tmax (in vivo; po, 30 mg/kg) | Purity (%) ([1]; day 0) | Purity (%) ([1]; day 10) | Purity (%) ([1]; day 30) | thermal stability (in words) [1] | light stability (in words) (Study of light stability) | Purity (%) (Study of light stability; day 0) | Purity (%) (Study of light stability; day 10) | Purity (%) (Study of light stability; day 30) | stability in highly humid surroundings (in words) [2] | Purity (%) ([2]; day 0) | Purity (%) ([2]; day 10) | Purity (%) ([2]; day 30) | SMILES | also measured
1 | 8.76% | 1.25 h | 99.26% | 99.21% | 99.11% | excellent thermal stability | excellent light stability | 99.26% | 99.26% | 99.24% | very stable | 99.26% | 99.25% | 99.24% | C=CC(=O)Nc1ccc2ncnc(Nc3ccc(OCc4cccc(F)c4)c(Cl)c3)c2c1.Cc1ccc(S(=O)(=O)O)cc1 [Crystalline form B, N-{4-[3-chloro-4-(3-fluoro-benzyloxy)phenylamino]quinazolin-6-yl}-acrylamide p-toluenesulfonate] | AUC(0-t) (in vivo; po, 30 mg/kg): 978 ng·h/mL; Cmax (in vivo; po, 30 mg/kg): 253 ng/mL; T1/2 (in vivo; po, 30 mg/kg): 1.23 h
2 | 5.17% | 2.25 h | 99.03% | 97.08% | 97.55% | good thermal stability | good light stability | 99.03% | 98.54% | 98.42% | quite stable | 99.03% | 98.27% | 98.08% | C=CC(=O)Nc1ccc2ncnc(Nc3ccc(OCc4cccc(F)c4)c(Cl)c3)c2c1.Cc1ccc(S(=O)(=O)O)cc1 [Crystalline form C, N-{4-[3-chloro-4-(3-fluoro-benzyloxy)phenylamino]quinazolin-6-yl}-acrylamide p-toluenesulfonate] | AUC(0-t) (in vivo; po, 30 mg/kg, AUC0-t): 577 ng·h/mL; Cmax (in vivo; po, 30 mg/kg, Cmax): 161 ng/mL; half-life (in vivo; po, 30 mg/kg, T1/2): 1.27 h
3 | – | – | – | – | – | – | – | – | – | – | – | – | – | – | CO[C@@]12[C@H](COC(N)=O)C3=C(C(=O)C(C)=C(N)C3=O)N1C[C@@H]1N[C@@H]12 [MMC, Mitomycin, reference compound] | RTV ([3]; RTV=Vt/V0): 3.1 ± 0.5; T/C (%) ([3]; T/C=(TRTV/CRTV)×100): 32.0%; Volume of tumor (mm^3) V21 ([3]; after 3 weeks): 258 ± 77 mm^3; Volume of tumor (mm^3) V0 ([3]; prior to the administration): 83 ± 13 mm^3

Reference: patent US8507010B2, “Compositions comprising quinazoline derivatives” (Shanghai Allist Pharmaceuticals, Inc., priority 2008, dated 2013)
